Laboratory results reported in US6517839B1, “Methods for inducing interleukin-12 and a type1/Th1 T-cell response” (priority 1997, dated 2003).

Test system: THP-1 cells
Experiment: IL-12 p40 release from THP-1 cells, measured by ELISA of 20 h supernatants
Assay type: cell-based, human
Details: for IL-12 p40 release: Example 7, FIG. 10, THP-1 20 h

Substance: 38 kDa lipoprotein: M. tuberculosis 38 kDa lipoprotein antigen; migrates as 39 kDa band
- IL-12 p40 release (monocyte Western blot) (Example 4, FIG. 7, solubilized gel regions of Rotofor fraction #4, average of four experiments): some contribution

Substance: recombinant 19 kDa expressed in E. coli: recombinant form of the M. tuberculosis 19 kDa antigen expressed in E. coli
- IL-12 p40 release: failed to induce any IL-12 p40

Substance: recombinant 19 kDa expressed in M. vaccae: recombinant form of the M. tuberculosis 19 kDa antigen expressed in a mycobacterial system, M. vaccae
- IL-12 p40 release: stimulated IL-12 p40 release in an equivalent manner
